Reference: ChEMBL document CHEMBL1138892, “Synthesis of Hsp90 dimerization modulators” (Bioorg Med Chem Lett, 2006)

Molecular target: Heat shock protein HSP90 (Homo sapiens, UniProt P07900+P08238)
Description: Displacement of GM-BODIPY from Hsp90

Row | EC50 | SMILES
1 | 345 nM | COC1=C2C[C@@H](C)C[C@H](OC)[C@H](O)[C@@H](C)/C=C(\C)[C@H](OC(N)=O)[C@@H](OC)/C=C\C=C(/C)C(=O)NC(=C(NC/C=C\CNC3=C4NC(=O)/C(C)=C/C=C\[C@H](OC)[C@@H](OC(N)=O)/C(C)=C/[C@H](C)[C@@H](O)[C@@H](OC)C[C@H](C)CC(=C(OC)C3=O)C4=O)C1=O)C2=O
2 | 45 nM | COC1=C2C[C@@H](C)C[C@H](OC)[C@H](O)[C@@H](C)/C=C(\C)[C@H](OC(N)=O)[C@@H](OC)/C=C\C=C(/C)C(=O)NC(=C(NC/C=C/CNC3=C4NC(=O)/C(C)=C/C=C\[C@H](OC)[C@@H](OC(N)=O)/C(C)=C/[C@H](C)[C@@H](O)[C@@H](OC)C[C@H](C)CC(=C(OC)C3=O)C4=O)C1=O)C2=O
3 | 465 nM | COC1=C2C[C@@H](C)C[C@H](OC)[C@H](O)[C@@H](C)/C=C(\C)[C@H](OC(N)=O)[C@@H](OC)/C=C\C=C(/C)C(=O)NC(=C(NCCCCCCCCCNC3=C4NC(=O)/C(C)=C/C=C\[C@H](OC)[C@@H](OC(N)=O)/C(C)=C/[C@H](C)[C@@H](O)[C@@H](OC)C[C@H](C)CC(=C(OC)C3=O)C4=O)C1=O)C2=O
4 | 91 nM | COC1=C2C[C@@H](C)C[C@H](OC)[C@H](O)[C@@H](C)/C=C(\C)[C@H](OC(N)=O)[C@@H](OC)/C=C\C=C(/C)C(=O)NC(=C(NCCCCNC3=C4NC(=O)/C(C)=C/C=C\[C@H](OC)[C@@H](OC(N)=O)/C(C)=C/[C@H](C)[C@@H](O)[C@@H](OC)C[C@H](C)CC(=C(OC)C3=O)C4=O)C1=O)C2=O
